Experiments:
BT474 = experiment: CDI of example compounds and Lapatinib (ATPlite cell survival); format: cell-based; set-up: key: CDI = AB/(A×B); <1 synergistic; details: compound 5 μM + Lapatinib 1 μM, 72 h; Lapatinib-sensitive human breast cancer cells; CDI<1 synergistic, <0.7 very significant, >1 antagonistic
Procedure: (§1) Cells: (BT474 and SK-BR3 are Lapatinib-sensitive human breast cancer cell strains; BT/LapR and SK/LapR are secondary Lapatinib-resistant human breast cancer cell strains upon Lapatinib stimulation; MDA-MB-361 and MDA-MB-453 are natural Lapatinib-resistant human breast cancer cell strains. BT474, MDA-MB-361, SK-BR3 and MDA-MB-453 are from American Type Culture Collection (ATCC))
(§2) In a 100 mm culture dish full of adherent cells, digestion with 1 ml 0.25% pancreatin (GIBCO) was carried out at 37° C. for 5 min, and the reaction was stopped with 2 ml medium (containing 10% FBS, GIBCO). The cells were dispersed and collected. After cell count, the cells were diluted to a concentration of 1×10^5 cells/ml, and were seeded to a 96-well plate at 50 μl/well, 5000 cell/well, 60 wells in total, PBS instead of cells was added to the wells of the outmost circle, and the incubation was carried out at 37° C. for 24 h for adherence.
(§3) For the sample group, samples to be tested were diluted with DMSO to a final concentration of 5 μM; to control wells, the medium containing the same concentration of solvent corresponding to the compound was added, the concentrations of the compounds were identical in each well, 5 wells in parallel were set for each concentration, 25 μL/well, and 25 μL medium was added to each well (for the combination group, 25 μL Lapatinib was added to reach a final concentration of 1 μM). The incubation was carried out at 37° C. for 72 h.
(§4) To each well, 50 μL ATPlite kit substrate solution was added. The plate was under shaking for 3 min, and was then placed in dark for 10 min. The lysis supernatant was drawn at 100 μL/well, and placed in a luminescent plate. The incubated luminescent plate was placed in an iluminescence apparatus, and the iluminescent value was read.
(§5) Data Processing Cell survival rate (%)=Experimental group RLU/control group RLU×100%
(§6) Coefficient of drug interaction (CDI) is used to evaluate the interaction of two drugs, CDI is calculated in accordance with the following formula: CDI=AB/(A×B)×100%. The calculation is performed according to the number of live cells (luminescent value), if CDI<1, the two drugs have a synergistic effect; if CDI<0.7, the synergistic effect is very significant; if CDI=1, the effect of the two drugs in combination is the sum of the effects of the two drugs; if CDI>1, the two drugs have an antagonistic effect.

MDA-MB-361 = experiment: as above; format: cell-based; set-up: key: CDI = AB/(A×B); <1 synergistic; details: compound 5 μM + Lapatinib 1 μM, 72 h; natural Lapatinib-resistant human breast cancer cells; CDI<1 synergistic
Procedure: as §1, §2, §3, §4, §5, §6

MDA-MB-453 = experiment: as above; format: cell-based; set-up: key: CDI = AB/(A×B); <1 synergistic; details: compound 5 μM + Lapatinib 1 μM, 72 h; natural Lapatinib-resistant human breast cancer cells; CDI<1 synergistic
Procedure: as §1, §2, §3, §4, §5, §6

SK-BR3 = experiment: as above; format: cell-based; set-up: key: CDI = AB/(A×B); <1 synergistic; details: compound 5 μM + Lapatinib 1 μM, 72 h; Lapatinib-sensitive human breast cancer cells; CDI<1 synergistic
Procedure: as §1, §2, §3, §4, §5, §6

BT/Lap^R1.0 = experiment: as above; format: cell-based; details: compound 5 μM + Lapatinib 1 μM, 72 h; secondary Lapatinib-resistant human breast cancer cells; CDI<1 synergistic
Procedure: as §1, §2, §3, §4, §5, §6

SK/Lap^R1.0 = experiment: as above; format: cell-based; details: compound 5 μM + Lapatinib 1 μM, 72 h; secondary Lapatinib-resistant human breast cancer cells; CDI<1 synergistic
Procedure: as §1, §2, §3, §4, §5, §6

Hsp70 ATPase = target: T1, Hsp70 ATPase (Homo sapiens, UniProt P0DMV8); experiment: Inhibition of Hsp70 ATPase activity (malachite green); format: biochemical; details: 200 μM; repeated screening carried out twice; Hsp70/Hsp40, 1 mM ATP; read-out: Inhibitory rate (%) on activity of Hsp70 ATPase
T1 construct: made in house; host or cells: E. coli
T1 sequence (P0DMV8 2-641 limits assumed): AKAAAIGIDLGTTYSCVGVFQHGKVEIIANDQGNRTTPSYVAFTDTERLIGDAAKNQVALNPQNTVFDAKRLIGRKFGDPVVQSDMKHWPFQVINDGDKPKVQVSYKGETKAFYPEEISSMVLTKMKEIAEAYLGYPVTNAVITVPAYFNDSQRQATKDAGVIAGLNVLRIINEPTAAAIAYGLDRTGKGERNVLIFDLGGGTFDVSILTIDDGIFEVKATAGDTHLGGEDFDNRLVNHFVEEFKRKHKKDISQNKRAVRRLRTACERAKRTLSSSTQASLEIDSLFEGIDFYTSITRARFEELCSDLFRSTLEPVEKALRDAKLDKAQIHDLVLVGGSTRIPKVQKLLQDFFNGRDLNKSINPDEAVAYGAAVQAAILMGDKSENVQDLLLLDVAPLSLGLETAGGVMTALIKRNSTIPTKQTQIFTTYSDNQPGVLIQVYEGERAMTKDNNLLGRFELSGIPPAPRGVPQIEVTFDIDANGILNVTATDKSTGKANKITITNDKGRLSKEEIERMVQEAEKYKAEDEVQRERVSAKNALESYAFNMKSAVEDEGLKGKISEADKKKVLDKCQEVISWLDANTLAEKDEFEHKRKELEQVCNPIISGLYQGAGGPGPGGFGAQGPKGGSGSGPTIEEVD
Procedure: (1) Protein: Humanized Hsp70, Hsp40, expressed by E. coli.
(2) Sample to be tested: 26 compound solids with different colors and states. Positive drugs AZ (CAS:1054543-47-3) and VER 155008 (CAS: 1134156-31-2) were synthesized in the laboratory.
(4) ATPase Assay buffer: • 0.017% Triton X-100; • 100 mM Tris-HCl; • 20 mM KCl; • 6 mM MgCl2, pH 7.4.
1) 13.08 μl DnaK (0.15 mg/mL, 2.14 μM), 1.96 μl DnaJ (1 mg/mL, 25 μM) were dissolved in 7.96 μl Assay Buffer (0.017% Triton X-100, 100 mM Tris-HCl, 20 mM KCl, and 6 mM MgCl2, pH 7.4), and the resultant solution was added to each well of the 96 well plate;
2) to each well of the 96 well plate, 1 μL sample to be tested (5 mM) or DMSO (solvent) was added, and vortexed with a Vortex agitator for 10 min; and then standing at 37° C. for 30 min;
3) to each well, 1 μL 25 mM ATP was added, to trigger the enzymatic reaction; (in each well, the final reaction volume was 25 μL, the final concentration of DnaK was 1.12 μM, the final concentration of DnaJ was 1.96 μM, the final concentration of DMSO was 4%, the final concentration of Triton X-100 was 0.01%, the final concentration of ATP was 1 mM, and the final concentration of sample to be tested was 200 μM), the enzymatic reaction was carried out at 37° C. for 3 h;
4) 80 μL Malachite green staining solution was then added to each well, and was vortexed gently;
5) 10 μL of 34% citrate sodium was then added immediately, and vortexed gently, to stop the ATP hydrolysis not caused by ATPase;
6) the resultant mixture was mixed thoroughly at 37° C. for 15 min, and OD620 was measured.
The inhibitory rate of Hsp70 ATPase activity is calculated in accordance with the following formula: Inhibitory rate (%)=(DMSO well OD−Experimental well OD)/(DMSO well OD−Blank well OD)×100
Criteria for preliminary screening: during preliminary screening, an example compound is regarded as effective in inhibition as long as its inhibitory rate is above 20% for Hsp70 ATPase at 200 μM.

SMILES | CDI of example compounds and Lapatinib, BT474 (BT474) | CDI of example compounds and Lapatinib, MDA-MB-361 (MDA-MB-361) | CDI of example compounds and Lapatinib, MDA-MB-453 (MDA-MB-453) | CDI of example compounds and Lapatinib, SK-BR3 (SK-BR3) | CDI of example compounds and Lapatinib, BT/Lap^R1.0 (BT/Lap^R1.0) | CDI of example compounds and Lapatinib, SK/Lap^R1.0 (SK/Lap^R1.0) | inhibition at 200 µM (Hsp70 ATPase) [%]
COc1cc(/C=C/C(=O)NC(NC(=S)Nc2cccnc2)C(C)(C)C)cc(OC)c1OC (stereo not drawn) [Example 27, (2E)-N-[2,2-dimethyl-1-(3-pyridin-3-ylthioureido)propyl]-3-(3,4,5-trimethoxyphenyl) acrylamide] | 0.98 | 0.96 | 1.32 | 1 | 1.01 | 0.97 | 2.17
CC(C)CC(NC(=O)/C=C/c1ccccc1)NC(=S)Nc1ccccc1 (stereo not drawn) [Example 38, (2E)-N-[3-methyl-1-(3-phenylthioureido)butyl] cinnamamide] | 0.86 | 1 | 1.21 | 1.16 | 0.93 | 0.93 | 2.51
Cc1ccccc1NC(=S)NC(CC(C)(C)C)NC(=O)/C=C/c1ccccc1 (stereo not drawn) [Example 46, N-[3,3-dimethyl-1-(3-o-methylphenylthioureido)butyl] cinnamamide] | 0.74 | 0.94 | 1.64 | 1.29 | 0.79 | 1.25 | 41
COc1cc(/C=C/C(=O)NC(NC(=S)Nc2ccccc2)C2CC2)cc(OC)c1OC (stereo not drawn) [Example 28, (2E)-N-[cyclopropyl-(3-phenylthioureido)-methyl]-3-(3,4,5-trimethoxyphenyl) acrylamide] | 1.07 | 0.93 | 1.21 | 1.06 | 0.99 | 0.95 | 50.5
COc1cc(/C=C/C(=O)NC(CC(C)(C)C)NC(=S)Nc2cccnc2)cc(OC)c1OC (stereo not drawn) [Example 33, (2E)-N-[3,3-dimethyl-1-(3-pyridin-3-ylthioureido)butyl]-3-(3,4,5-trimethoxyphenyl) acrylamide] | 0.81 | 0.89 | 1.19 | 0.96 | 0.97 | 0.88 | 47.1
CC(C)(C)C(NC(=O)/C=C/c1ccccc1)NC(=S)Nc1ccccc1 (stereo not drawn) [Example 40, (2E)-N-[2,2-dimethyl-1-(3-phenylthioureido)propyl] cinnamamide] | 0.85 | 0.95 | 1.37 | 1.14 | 0.95 | 0.99 | 27.3
COc1ccc(NC(=S)NC(NC(=O)/C=C/c2cc(OC)c(OC)c(OC)c2)C(C)C)cc1 (stereo not drawn) [Example 50, (2E)-N-{1-[3-(4-methoxyphenyl)thioureido]-2-methylpropyl}-3-(3,4,5-trimethoxyphenyl) acrylamide] | 1.02 | 0.97 | 1.4 | 1.06 | 1.02 | 0.96 | 28.8
Cc1ccccc1NC(=S)NC(NC(=O)/C=C/c1ccccc1)C1CC1 (stereo not drawn) [Example 49, N-[cyclopropyl-(3-o-methylphenylthioureido)-methyl] cinnamamide] | 0.9 | 0.95 | 1.2 | 1.08 | 0.96 | 0.99 | 65.4
COc1cc(/C=C/C(=O)NC(NC(=S)Nc2ccccc2)C(C)(C)C)cc(OC)c1OC (stereo not drawn) [Example 26] | 1.02 | 0.99 | 0.89 | 1.03 | 0.96 | 1.02 | 4.55
COc1cc(/C=C/C(=O)NC(NC(=S)Nc2ccccc2C)C(C)(C)C)cc(OC)c1OC (stereo not drawn) [Example 44, (2E)-N-[2,2-dimethyl-1-(3-o-methylphenylthioureido)propyl]-3-(3,4,5-trimethoxyphenyl)acrylamide] | 0.94 | 0.93 | 1.12 | 0.96 | 0.93 | 0.98 | 50.5
COc1cc(/C=C/C(=O)NC(NC(=S)Nc2ccccc2C)C2CC2)cc(OC)c1OC (stereo not drawn) [Example 45, (2E)-N-[cyclopropyl-(3-o-methylphenylthioureido)-methyl]-3-(3,4,5-trimethoxyphenyl) acrylamide] | 1.59 | 0.93 | 0.98 | 1.05 | 0.79 | 1.04 | 19.3
Cc1ccccc1NC(=S)NC(NC(=O)/C=C/c1ccccc1)C(C)(C)C (stereo not drawn) [Example 48, N-[2,2-dimethyl-1-(3-o-methylphenylthioureido)propyl] cinnamamide] | 0.92 | 1.15 | 1.2 | 1.15 | 0.96 | 0.99 | -0.88
